Measurements published in US20230055237A1, “COMPOUNDS AND METHODS FOR THE TREATMENT OF CYSTIC FIBROSIS” (Flatley Discovery Lab, LLC, priority 2019, published 2023).

Target: T1, CFTR (Homo sapiens, UniProt P13569, DEL508-508)
T1 construct: Primary CF airway epithelial cells were obtained from the UNC Cystic Fibrosis Tissue Procurement and Cell Culture Core; host or cells: primary CF airway epithelial cells, differentiated at the air-liquid interface
Assay: Equivalent current assay in primary CF airway epithelial cells (NAUC, combination with 1st site corrector FDL169 or VX-809)
Type: cell-based
Conditions: 37° C., 24 h

[1] = test compound 1 μM in combination with 1st site corrector VX-809 (3 μM)
[2] = test compound 3 μM in combination with 1st site corrector VX-809 (3 μM)
[3] = test compound 10 μM in combination with 1st site corrector VX-809 (3 μM)
[4] = test compound 1 μM in combination with 1st site corrector FDL169 (3 μM)
[5] = test compound 3 μM in combination with 1st site corrector FDL169 (3 μM)
[6] = test compound 10 μM in combination with 1st site corrector FDL169 (3 μM)

T1 sequence (P13569 with tags, fused parts or gaps DEL508-508): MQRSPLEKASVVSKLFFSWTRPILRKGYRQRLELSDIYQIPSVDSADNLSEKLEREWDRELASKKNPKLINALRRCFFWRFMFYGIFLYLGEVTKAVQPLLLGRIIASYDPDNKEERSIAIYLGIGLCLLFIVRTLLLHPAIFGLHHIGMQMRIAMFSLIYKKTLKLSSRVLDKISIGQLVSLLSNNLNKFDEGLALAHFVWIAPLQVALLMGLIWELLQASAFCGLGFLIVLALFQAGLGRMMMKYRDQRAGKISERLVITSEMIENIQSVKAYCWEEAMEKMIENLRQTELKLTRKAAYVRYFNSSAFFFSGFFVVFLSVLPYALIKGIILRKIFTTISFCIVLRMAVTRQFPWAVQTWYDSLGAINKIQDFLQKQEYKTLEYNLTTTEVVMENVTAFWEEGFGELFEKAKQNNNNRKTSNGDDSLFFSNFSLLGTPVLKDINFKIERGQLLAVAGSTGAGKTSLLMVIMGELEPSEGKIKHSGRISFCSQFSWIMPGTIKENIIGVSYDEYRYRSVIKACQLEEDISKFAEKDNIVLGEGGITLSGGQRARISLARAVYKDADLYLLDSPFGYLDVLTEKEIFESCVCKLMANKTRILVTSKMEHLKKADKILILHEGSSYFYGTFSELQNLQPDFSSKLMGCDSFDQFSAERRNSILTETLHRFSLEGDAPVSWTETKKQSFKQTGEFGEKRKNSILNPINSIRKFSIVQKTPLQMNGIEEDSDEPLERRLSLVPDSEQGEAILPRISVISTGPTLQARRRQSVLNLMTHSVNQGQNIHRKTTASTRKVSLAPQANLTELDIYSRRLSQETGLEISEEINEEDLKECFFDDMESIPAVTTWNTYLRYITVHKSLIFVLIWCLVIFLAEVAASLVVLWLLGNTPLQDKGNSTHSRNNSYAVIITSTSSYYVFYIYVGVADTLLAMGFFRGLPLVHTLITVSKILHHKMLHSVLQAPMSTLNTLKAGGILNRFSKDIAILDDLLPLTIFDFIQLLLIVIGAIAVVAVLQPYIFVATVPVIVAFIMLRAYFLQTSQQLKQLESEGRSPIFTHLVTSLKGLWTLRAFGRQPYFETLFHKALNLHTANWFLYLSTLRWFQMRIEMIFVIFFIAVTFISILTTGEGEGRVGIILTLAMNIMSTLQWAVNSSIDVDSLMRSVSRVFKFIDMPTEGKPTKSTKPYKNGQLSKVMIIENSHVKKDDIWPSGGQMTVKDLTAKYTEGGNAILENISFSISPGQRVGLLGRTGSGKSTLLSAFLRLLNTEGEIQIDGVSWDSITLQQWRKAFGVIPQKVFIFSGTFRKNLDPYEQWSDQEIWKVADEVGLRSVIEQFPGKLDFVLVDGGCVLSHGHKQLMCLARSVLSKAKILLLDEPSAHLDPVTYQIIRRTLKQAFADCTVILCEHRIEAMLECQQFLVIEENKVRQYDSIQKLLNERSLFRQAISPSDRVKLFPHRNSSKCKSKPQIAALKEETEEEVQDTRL

Structure (SMILES)	Nauc @ 1 μM [1]	Nauc @ 3 μM [2]	Nauc @ 10 μM [3]	Nauc @ 1 μM [4]	Nauc @ 3 μM [5]	Nauc @ 10 μM [6]
O=C(Nc1cc(Cl)cc(Cl)c1)C1C(C(F)(F)c2ccccc2C(F)(F)F)NC2(C(=O)Nc3c(Cl)cc(Cl)cc32)C1C(=O)O (centres unmarked) [Example 69.b]	++ (NAUC “++” refers to an observed NAUC 170-140% of positive control)	+++ (NAUC “+++” refers to an observed NAUC>170% of positive control)	++ (NAUC “++” refers to an observed NAUC 170-140% of positive control)	–	–	–
O=C(NCCc1ccc(Cl)cc1)C1C2CC(F)(F)CN2C2(C(=O)Nc3c(Cl)cc(Cl)cc32)C1C(=O)O (centres unmarked) [Example 52]	–	++ (NAUC “++” refers to an observed NAUC 170-140% of positive control)	+++ (NAUC “+++” refers to an observed NAUC>170% of positive control)	–	–	–
O=C(Nc1ccccc1-c1ccccc1)[C@H]1[C@H]2CC(F)(F)CN2[C@]2(C(=O)Nc3c(Cl)cc(Cl)cc32)[C@H]1C(=O)O [Example 121]	+++ (NAUC “+++” refers to an observed NAUC>170% of positive control)	+++ (NAUC “+++” refers to an observed NAUC>170% of positive control)	++ (NAUC “++” refers to an observed NAUC 170-140% of positive control)	–	–	–
CON(C)C(=O)[C@H]1[C@@H](C(=O)Nc2cc(Cl)cc(Cl)c2)[C@H]2CC(F)(F)CN2[C@]12C(=O)Nc1c(Cl)cc(Cl)cc12 [Example 227, (1′R,2′S,3R,7a′R)-5,7-dichloro-N1′-(3,5-dichlorophenyl)-6′,6′-difluoro-N2′-methoxy-N2′-methyl-2-oxo-1′,2′,5′,6′,7′,7a′-hexahydrospiro [indoline-3,3′-pyrrolizine]-1′,2′-dicarboxamide]	+ (NAUC “+” refers to an observed NAUC <140% of positive control)	++ (NAUC “++” refers to an observed NAUC 170-140% of positive control)	++ (NAUC “++” refers to an observed NAUC 170-140% of positive control)	–	–	–
NC(=O)[C@H]1[C@@H](C(=O)Nc2cc(Cl)cc(Cl)c2)[C@H]2CC(F)(F)CN2[C@]12C(=O)Nc1c(Cl)cc(Cl)cc12 [Example 228, (1′R,2′S,3R,7a′R)-5,7-dichloro-N1′-(3,5-dichlorophenyl)-6′,6′-difluoro-2-oxo-1′,2′,5′,6′,7′,7a′-hexahydrospiro[indoline-3,3′-pyrrolizine]-1′,2′-dicarboxamide]	+ (NAUC “+” refers to an observed NAUC <140% of positive control)	+ (NAUC “+” refers to an observed NAUC <140% of positive control)	+ (NAUC “+” refers to an observed NAUC <140% of positive control)	–	–	–
O=C(O)[C@H]1[C@@H](C(=O)N(CC2CC2)c2cc(Cl)cc(Cl)c2)[C@H]2CC(F)(F)CN2[C@]12C(=O)N(C1CC1)c1c(Cl)cc(Cl)cc12 [Example 208, (1′R,2′S,3R,7a′R)-5,7-dichloro-1-cyclopropyl-1′-((cyclopropylmethyl)(3,5-dichlorophenyl)carbamoyl)-6′,6′-difluoro-2-oxo-1′,2′,5′,6′,7′,7a′-hexahydrospiro[indoline-3.3′-pyrrolizine]-2′-carboxylic acid]	–	–	–	++ (NAUC “++” refers to an observed NAUC 170-140% of positive control)	++ (NAUC “++” refers to an observed NAUC 170-140% of positive control)	+ (NAUC “+” refers to an observed NAUC <140% of positive control)
O=C(O)[C@H]1[C@@H](C(=O)N(Cc2ccccc2)c2cc(Cl)cc(Cl)c2)[C@H]2CC(F)(F)CN2[C@]12C(=O)Nc1c(Cl)cc(Cl)cc12 [Example 149]	–	–	–	++ (NAUC “++” refers to an observed NAUC 170-140% of positive control)	+++ (NAUC “+++” refers to an observed NAUC>170% of positive control)	+ (NAUC “+” refers to an observed NAUC <140% of positive control)
CN(C)C(=O)CN1C(=O)[C@]2(c3cc(Cl)cc(Cl)c31)[C@@H](C(=O)O)[C@@H](C(=O)N(CC1CC1)c1cc(Cl)cc(Cl)c1)[C@H]1CC(F)(F)CN12 [Example 205]	–	–	–	+ (NAUC “+” refers to an observed NAUC <140% of positive control)	++ (NAUC “++” refers to an observed NAUC 170-140% of positive control)	++ (NAUC “++” refers to an observed NAUC 170-140% of positive control)
CN(O)C(=O)C1C(C(=O)Nc2cc(Cl)cc(Cl)c2)C2CC(F)(F)CN2C12C(=O)Nc1c(Cl)cc(Cl)cc12 (single isomer, unassigned) [Example 225a, 5,7-dichloro-N1′-(3,5-dichlorophenyl)-6′,6′-difluoro-N2′-hydroxy-N2′-methyl-2-oxo-1′,2′,5′,6′,7′,7a′-hexahydrospiro[indoline-3,3′-pyrrolizine]-1′,2′-dicarboxamide]	+ (NAUC “+” refers to an observed NAUC <140% of positive control)	+ (NAUC “+” refers to an observed NAUC <140% of positive control)	+++ (NAUC “+++” refers to an observed NAUC>170% of positive control)	–	–	–
O=C(Nc1cc(Cl)cc(Cl)c1)C1C(C(F)(F)c2cccc(Cl)c2)NC2(C(=O)Nc3c(Cl)cc(Cl)cc32)C1C(=O)O (centres unmarked) [Example 68.b]	–	–	+ (NAUC “+” refers to an observed NAUC <140% of positive control)	–	–	–
Cn1ncc2cc(NC(=O)[C@H]3[C@H]4CC(F)(F)CN4[C@]4(C(=O)Nc5c(Cl)cc(Cl)cc54)[C@H]3C(=O)O)ccc21 [Example 138]	–	–	–	+ (NAUC “+” refers to an observed NAUC <140% of positive control)	+ (NAUC “+” refers to an observed NAUC <140% of positive control)	–
O=C(Nc1cc(Cl)c(OC(F)F)c(Cl)c1)C1C2CC3(CC3)CN2C2(C(=O)Nc3c(Cl)cc(Cl)cc32)C1C(=O)O (centres unmarked) [Example 12]	–	+++ (NAUC “+++” refers to an observed NAUC>170% of positive control)	+++ (NAUC “+++” refers to an observed NAUC>170% of positive control)	–	–	–
CC(=O)OCOC(=O)[C@@H]1[C@@H](C(=O)N(C)c2cc(Cl)cc(Cl)c2)[C@H]2CC(F)(F)CN2[C@]12C(=O)Nc1c(Cl)cc(Cl)cc12 (single isomer, unassigned) [Example 256a]	–	–	+++ (NAUC “+++” refers to an observed NAUC>170% of positive control)	–	–	–
Cc1nc2ccc(NC(=O)[C@H]3[C@H]4CC(F)(F)CN4[C@]4(C(=O)Nc5c(Cl)cc(Cl)cc54)[C@H]3C(=O)O)cc2s1 [Example 118]	+ (NAUC “+” refers to an observed NAUC <140% of positive control)	+ (NAUC “+” refers to an observed NAUC <140% of positive control)	+ (NAUC “+” refers to an observed NAUC <140% of positive control)	–	–	–
CCN(C(=O)[C@H]1[C@H]2CC(F)(F)CN2C2(C(=O)Nc3c(Cl)cc(Cl)cc32)[C@H]1C(=O)O)c1cc(Cl)cc(Cl)c1 (some centres unmarked) [Example 289]	+++ (NAUC “+++” refers to an observed NAUC>170% of positive control)	+++ (NAUC “+++” refers to an observed NAUC>170% of positive control)	+++ (NAUC “+++” refers to an observed NAUC>170% of positive control)	–	–	–
CC(C)(C)CN(C(=O)[C@H]1[C@H]2CC3(CC3)CN2[C@]2(C(=O)Nc3c(Cl)cc(Cl)cc32)[C@H]1C(=O)O)c1cc(Cl)cc(Cl)c1 (single isomer, unassigned) [Example 275.7a]	–	–	–	+++ (NAUC “+++” refers to an observed NAUC>170% of positive control)	+++ (NAUC “+++” refers to an observed NAUC>170% of positive control)	+++ (NAUC “+++” refers to an observed NAUC>170% of positive control)
O=C(Nc1cc(Cl)cc(Cl)c1)C1CN(C(=O)NCc2ccccc2)C2(C(=O)Nc3c(Cl)cc(Cl)cc32)C1C(=O)O (centres unmarked) [Example 31]	–	+ (NAUC “+” refers to an observed NAUC <140% of positive control)	+++ (NAUC “+++” refers to an observed NAUC>170% of positive control)	–	–	–
CC(C)(C)C(C)(C)CN(C(=O)[C@H]1[C@H]2CC(F)(F)CN2[C@]2(C(=O)Nc3c(Cl)cc(Cl)cc32)[C@H]1C(=O)O)c1cc(Cl)cc(Cl)c1 [Example 185]	–	–	–	+++ (NAUC “+++” refers to an observed NAUC>170% of positive control)	+++ (NAUC “+++” refers to an observed NAUC>170% of positive control)	+ (NAUC “+” refers to an observed NAUC <140% of positive control)
C[C@]1(OCc2ccccc2)C[C@@H]2[C@H](C(=O)N(CC3CCCC3)c3cc(Cl)cc(Cl)c3)[C@H](C(=O)O)[C@@]3(C(=O)Nc4c(Cl)cc(Cl)cc43)N2C1 [Example 94]	–	–	–	++ (NAUC “++” refers to an observed NAUC 170-140% of positive control)	++ (NAUC “++” refers to an observed NAUC 170-140% of positive control)	–
O=C(Nc1cc(Cl)cc(Cl)c1)C1CN(C(=O)Nc2ccccc2)C2(C(=O)Nc3c(Cl)cc(Cl)cc32)C1C(=O)O (centres unmarked) [Example 30]	–	+ (NAUC “+” refers to an observed NAUC <140% of positive control)	++ (NAUC “++” refers to an observed NAUC 170-140% of positive control)	–	–	–
